# Reference: US8642559B2, “C-terminal domain truncation of mGluR1α by calpain and uses thereof” (priority 2006, dated 2014)
# Where a SMILES comes first, the peptide text is derived from it. The star is where a group is joined. Cbz = O=C(OCc1ccccc1)*
# Key:
# [1] = test system: mGluR1α; assay: Glutamate/NMDA-induced C-terminal truncation of mGluR1α in cultured cortical neurons (immunoblot); assay type: cell-based; details: for block of glutamate-induced truncation of mGluR1α: glutamate 100 μM, antagonist 100 μM
# Excerpt: Total cell lysates were separated by SDS-PAGE and probed with an antibody against the carboxyl terminus (residue 1142-1160) of mGluR1α. […] Total cell lysates were probed with an anti-myc antibody. […] Total cell lysates were probed with antibodies against mGluR5, G1uR2/3 and VGluT1 respectively.
# Total cell lysate was collected immediately after treatment and subjected to SDS-PAGE and immunoblotting with an antibody against the carboxyl terminus (residues 1142-1160) of mGluR1α (FIG. 2A). […] Neurons were transfected with a calcium phosphate precipitation method modified for high transfection rate (Jian et al., Gene Ther 11:1301-1311, 2004).
# Cortical neurons were treated with NMDA at the indicated concentrations for 1 h or treated with NMDA (10 μM) for the indicated times. Total cell lysates were separated by SDS-PAGE and probed with antibodies against mGluR1α1142-1160, Results were normalized over control values and are means±s.e.m. of 4 experiments.
# To determine whether activation of mGluR1α itself was required for the truncation, two distinct mGluR1α antagonists were applied.
# To further characterize NMDA-induced mGluR1α truncation, the concentration- and time-dependencies of the effects of NMDA were studied. Cortical neurons were first incubated with different concentrations of NMDA for a fixed period of time (1 hour) (FIG. 3F). […] In a following experiment, cortical neurons were incubated with 10 μM NMDA for different durations ranging from 1 to 60 min (FIG. 3G).
# Cortical neurons were treated with NMDA (10 μM, 1 h). Total cell lysates were separated by SDS-PAGE and probed with antibodies against spectrin and mGluR1α1142-1160, respectively. Only the degradation bands of spectrin (spectrin DB, at ˜145 KD) are shown. […] In FIG. 4C, purified myc-mGluR1α was digested with μ-calpain at the indicated concentrations (U/ml) for 30 min. The digested material was processed for SDS-PAGE and subjected to silver staining or immunoblots with anti-myc or anti-mGluR1α1142-1160 antibodies. […] The 1st lane was the myc-mGluR1α immunoprecipitated from 293 cells; the 2nd and 3rd lanes were immunoprecipitated myc-mGluR1α digested with indicated concentration of calpain. […] FIG. 4F is the alignment of mGluR1 (902-941) and mGluR5 (889-927) surrounding the calpain cleavage site.
# In this set of experiments, we determined which protease(s) mediated NMDA-induced truncation of mGluR1α. […] Cortical neurons were pretreated with a calpain inhibitor, the cell-permeable calpain-inhibitor III, or the caspase inhibitor cpm-VAD-CHO for 2 hours and then incubated in the absence or presence of 100 µM NMDA for 1 hour. […] To further confirm calpain activation by NMDA under our experimental conditions, we determined the levels of the calpain-specific spectrin degradation fragments.
# [2] = test system: cortical neurons; assay: NMDA/DHPG neuronal toxicity in cortical neurons (EthD-1/Calcein AM live/dead); assay type: cell-based; details: for cell death: 24 hours after
# Excerpt: In FIGS. 8a and b, cortical neurons were co-transfected with green fluorescent protein (GFP) and vector DNA, myc-mGluR1α or myc-mGluR1α936Δ, respectively. […] Twelve hours later, neurons were stained with EthD-1 to label dead cells. Arrowheads in FIG. 8a indicate EthD-1 positive GFP-expressing neurons. * p<0.05. FIGS. 8c and d are representative photos and bar graphs showing differential roles of endogenous mGluR1 in neuronal toxicity before and after NMDA-induced truncation. Cortical neurons were treated as indicated and were stained with EthD-1 (for dead cells) and calcein AM (for live cells) 24 hours later. * p<0.001.
# We then tested whether calpain-mediated truncation of endogenous mGluR1α also alters its roles in excitotoxicity. We used NMDA to elicit mGluR1α truncation and evaluated the roles of mGluR1 in neuronal toxicity by applying DHPG before and after truncation. Fourteen DIV cortical neurons cultured on 18×18 mm coverslips were divided into 6 groups, which received the following treatments, respectively: 1) “Control”: vehicle; 2) “NMDA”: 100 μM NMDA for 1 hour; 3) “DHPG before NMDA”: DHPG, 100 μM, for 1 hour, followed by 100 μM NMDA for 1 hour; 4) “DHPG after NMDA”: NMDA, 100 μM, for 1 hour, followed by 100 μM DHPG for 1 hour; 5) “DHPG+LY before NMDA”: 100 μM DHPG was co-applied with 100 μM LY367385 for 1 hour and followed by 100 μM NMDA for 1 hour; 6) “DHPG+LY after NMDA”: NMDA 100 μM for 1 hour, followed by 100 μM DHPG co-applied with 100 μM LY367385. Twenty-four hours after treatment, all neurons were stained for 20 minutes with 0.5 μM EthD-1 to label dead cells and 2 μM Calcein AM to label live cells. After three washes with culture medium, coverslips were mounted and one microscopy photo was immediately taken from the center area of each coverslip. EthD-1 and Calcein AM positive cells on each photo were then counted. The percentage of cell death was calculated as the number of EthD-1 positive cell/(number of EthD-1 positive cell+number of Calcein AM positive cell)*100%.
# [3] = molecular target: myc-mGluR1α936Δ (Rattus norvegicus, UniProt P23385); assay: DHPG-induced whole-cell currents in HEK293 cells transfected with myc-mGluR1α936Δ; assay type: cell-based; details: 100 μM DHPG
# myc-mGluR1α936Δ, sequence (P23385 19-936 limits assumed, stated change not applied): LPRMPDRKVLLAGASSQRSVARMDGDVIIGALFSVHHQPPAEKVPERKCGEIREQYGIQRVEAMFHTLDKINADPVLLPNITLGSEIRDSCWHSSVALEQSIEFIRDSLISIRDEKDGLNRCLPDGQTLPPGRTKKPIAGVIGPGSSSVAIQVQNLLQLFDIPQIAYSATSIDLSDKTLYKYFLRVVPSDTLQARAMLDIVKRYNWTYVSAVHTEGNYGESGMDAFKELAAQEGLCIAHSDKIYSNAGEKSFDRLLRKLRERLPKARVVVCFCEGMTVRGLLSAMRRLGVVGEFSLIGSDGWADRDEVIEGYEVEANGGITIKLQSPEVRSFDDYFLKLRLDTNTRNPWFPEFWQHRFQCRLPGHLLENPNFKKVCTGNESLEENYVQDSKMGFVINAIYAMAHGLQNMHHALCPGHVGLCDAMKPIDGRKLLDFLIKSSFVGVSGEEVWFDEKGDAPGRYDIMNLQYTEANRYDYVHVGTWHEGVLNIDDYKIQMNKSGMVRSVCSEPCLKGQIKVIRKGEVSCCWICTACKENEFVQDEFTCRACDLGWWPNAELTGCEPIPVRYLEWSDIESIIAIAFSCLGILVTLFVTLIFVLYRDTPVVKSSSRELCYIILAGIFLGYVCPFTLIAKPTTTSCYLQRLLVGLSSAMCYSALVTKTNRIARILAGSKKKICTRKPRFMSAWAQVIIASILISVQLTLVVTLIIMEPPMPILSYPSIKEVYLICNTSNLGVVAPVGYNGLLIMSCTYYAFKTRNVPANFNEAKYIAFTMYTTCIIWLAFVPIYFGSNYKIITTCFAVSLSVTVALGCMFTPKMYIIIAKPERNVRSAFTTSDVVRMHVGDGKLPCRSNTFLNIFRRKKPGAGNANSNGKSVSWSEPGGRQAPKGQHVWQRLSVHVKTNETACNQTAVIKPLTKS
# Experimental: (§1) Representative current traces recorded from HEK293 cells transfected with either myc-mGluR1α (left panel) or myc-mGluR1α936Δ (right panel) and GIRK1, GIRK2 (top) or TRPC1 (bottom). DHPG (100 μM in extracellular solution) was applied using a fast perfusion system for the duration indicated by the scale bars. Each trace is the average of 5 continuous sweeps. The bar graphs represent the means±S.E.M. of DHPG-induced current amplitude recorded in cells transfected with myc-mGluR1α or myc-mGluR1α936Δplus GIRK1, GIRK2 (top right) or TRPC1 (bottom right) (n=3-7). In FIG. 6B, cortical neurons were pre-treated with NMDA (50 1μM, 1 h). Two hours after washing NMDA, neurons were treated with the mGluR1 agonist DHPG (50 μM) for 10 min in the absence or presence of LY367385. Total cell lysates were collected and probed with anti-Phospho Akt (Ser473) antibody.
# (§2) Because activation of mGluR1α can also stimulate non-selective cation excitatory postsynaptic conductances (EPSCs), we therefore analyzed mGluR1α-dependent currents before and after calpain-mediated truncation. We transfected HEK293 cells with either myc-mGluR1α or myc-mGluR1α936Δ plus GIRK1, GIRK2 or TRPC1.
# [4] = test system: myc-mGluR1α; assay: DHPG-induced calcium transients in HEK293 cells transfected with myc-mGluR1α (calcium imaging); assay type: cell-based; details: 100 μM DHPG; untransfected cells
# Excerpt: (§3) In this set of experiments, HEK293 cells were co-transfected with DsRed (red fluorescent protein) and wild-type myc-mGluR1α or truncated myc-mGluR1α936Δ. The mGluRI agonist DHPG was used to induce mGluR1α-mediated calcium transients. In FIG. 5A, photos in the left show the expression of DsRed, labeling transfected cells; photos in the middle illustrate the fluorescent signal from the calcium indicator Oregon green 488 BAPTA-1 AM before and after DHPG application; photos in the right are obtained by subtracting “before DHPG” from “after DHPG”, thus representing DHPG-induced calcium transients.
# (§4) The main signaling mechanism activated by mGluR1α consists of PI hydrolysis through G-protein and phospholipase C, which eventually leads to calcium release from internal calcium stores. Therefore we first performed calcium imaging to determine whether mGluR1α remains functional following C-terminal truncation. Wild-type mGluR1 (myc-mGluR1α) or the truncated form (myc-mGluR1α936Δ) was cotransfected with DsRed into HEK293 cells. Forty-eight hours after transfection, cells were loaded with a calcium reporter, Oregon green 488 BAPTA-1 AM (0.63% in extracellular solution).
# [5] = molecular target: T1, myc-mGluR1α (Rattus norvegicus, UniProt P23385); assay: as above; assay type: cell-based; details: 100 μM DHPG; myc-mGluR1α-transfected HEK293 cells
# T1 sequence (P23385 19-1199): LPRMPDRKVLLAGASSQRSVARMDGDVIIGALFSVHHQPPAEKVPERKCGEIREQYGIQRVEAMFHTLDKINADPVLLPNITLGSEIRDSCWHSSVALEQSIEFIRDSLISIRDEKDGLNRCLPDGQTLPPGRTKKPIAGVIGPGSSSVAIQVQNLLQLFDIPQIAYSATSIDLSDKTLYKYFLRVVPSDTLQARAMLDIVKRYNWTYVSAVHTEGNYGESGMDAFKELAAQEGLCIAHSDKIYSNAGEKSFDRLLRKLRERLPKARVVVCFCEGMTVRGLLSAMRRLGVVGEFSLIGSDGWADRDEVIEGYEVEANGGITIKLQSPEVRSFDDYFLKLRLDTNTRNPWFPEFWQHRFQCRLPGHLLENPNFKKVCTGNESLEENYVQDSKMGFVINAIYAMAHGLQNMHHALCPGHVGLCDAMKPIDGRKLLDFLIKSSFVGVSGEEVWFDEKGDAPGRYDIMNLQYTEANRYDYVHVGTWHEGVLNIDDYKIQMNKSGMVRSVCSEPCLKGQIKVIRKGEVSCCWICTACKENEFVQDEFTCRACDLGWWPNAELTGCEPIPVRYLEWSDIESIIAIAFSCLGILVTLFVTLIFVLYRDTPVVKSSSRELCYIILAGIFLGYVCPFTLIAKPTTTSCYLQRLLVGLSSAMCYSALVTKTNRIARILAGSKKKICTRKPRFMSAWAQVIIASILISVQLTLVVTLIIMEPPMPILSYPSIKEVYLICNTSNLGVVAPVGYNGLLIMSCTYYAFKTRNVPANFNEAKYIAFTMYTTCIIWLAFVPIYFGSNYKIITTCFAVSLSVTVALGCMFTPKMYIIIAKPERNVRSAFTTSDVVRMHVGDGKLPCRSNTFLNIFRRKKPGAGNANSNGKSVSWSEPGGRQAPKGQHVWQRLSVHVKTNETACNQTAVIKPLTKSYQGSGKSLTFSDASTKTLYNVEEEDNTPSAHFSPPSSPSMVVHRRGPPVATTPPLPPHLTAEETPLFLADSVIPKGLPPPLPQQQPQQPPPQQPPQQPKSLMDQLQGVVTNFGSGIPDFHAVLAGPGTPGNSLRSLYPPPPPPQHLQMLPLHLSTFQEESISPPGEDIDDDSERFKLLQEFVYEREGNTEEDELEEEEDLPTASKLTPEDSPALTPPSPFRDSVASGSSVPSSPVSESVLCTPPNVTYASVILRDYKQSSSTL
# Excerpt: as §3, §4
# [6] = test system: Phospho Akt (Ser473); assay: Akt phosphorylation (Ser473) in cortical neurons (Western blot); assay type: cell-based; details: DHPG 50 μM; for phosphorylated Akt levels: 10 min
# Experimental: as §1, with “antibody. Without pretreatment with NMDA, DHPG increased the levels of Phospho-Akt (* p<0.05), an effect blocked by LY367385.” for “antibody.”
# As reported in previous studies, mGluR1 activation can stimulate the PI3K-Akt signaling pathway through the mGluRI-Homer-PIEL-PI3K signaling complex. Since the Homer-binding domain of mGluR1α is located in the extreme C-terminus, which is removed after calpain-mediated truncation, it was interesting to determine whether this signaling mechanism remained functional. We first induced mGluR1α truncation by treating cortical neurons with 50 μM NMDA for 1 hour. Two hours after washing out NMDA, neurons were incubated with the mGluRI agonist DHPG (50 μM) for 10 min. Neurons were then lysed and levels of phosphorylated Akt were determined on Western blots. Consistent with a previous study, in cortical neurons that were not pre-treated with NMDA, DHPG induced an increase in phosphorylated Akt levels (p<0.05, n=4, Student's t-test for Control vs. DHPG), an effect which was blocked by the mGluR1 selective antagonist LY367385 (p<0.05, n=4, for DHPG+LY367385 vs. DHPG) (FIG. 6B). […] Thus, mGluR1α-PI3K-Akt signaling pathway was disrupted by calpain-mediated mGluR1α truncation.
# [7] = molecular target: T1, myc-mGluR1α; assay: DHPG-induced whole-cell currents in HEK293 cells transfected with myc-mGluR1α; assay type: cell-based; details: 100 μM DHPG
# Experimental: as §1, §2
# [8] = test system: spectrin; assay: NMDA-induced calpain-specific spectrin degradation (145 kD fragment) in cortical neurons; assay type: cell-based; details: NMDA 10 μM, 1 h
# Experimental: In this set of experiments, we determined which protease(s) mediated NMDA-induced truncation of mGluR1α. […] Cortical neurons were pretreated with a calpain inhibitor, the cell-permeable calpain-inhibitor III, or the caspase inhibitor cpm-VAD-CHO for 2 hours and then incubated in the absence or presence of 100 M NMDA for 1 hour. […] To further confirm calpain activation by NMDA under our experimental conditions, we determined the levels of the calpain-specific spectrin degradation fragments.
# [9] = test system: mGluR1α; assay: In vivo truncation of mGluR1α in hippocampus after kainic acid injection; details: kainic acid 30 mg/kg s.c., mice
# Experimental: (§5) The tat-peptide was injected i.p. 90 min before kainic acid injection. Note that the peptide had no effect on seizure intensity (bottom left).
# The objective of this set of experiments was to verify that the feedback mechanism of the present invention could take place in vivo and participate in excitotoxicity. We used the kainic acid model of excitotoxicity, as this model has been widely used to study the mechanisms underlying in vivo excitotoxicity (Wang et al. Mol Neurobiol 31:3-16, 2005). Mice were injected with kainic acid and sacrificed at different times after injection. Levels of mGluR1α were determined in hippocampus with both Western blots and immunohistochemistry (FIG. 10).
# [10] = test system: hippocampal neurons; assay: Kainic acid-induced neuronal damage (silver staining) and seizures in mice; assay type: in vivo; details: kainic acid 30 mg/kg s.c., mice, 7 days, silver staining
# Experimental: as §5
# They were sacrificed after 7 days and brains processed for silver staining, a marker of cell damage. Note the heavy labeling of the pyramidal cell layer in the KA alone group.
# The effect of the tat-mGluR1 peptide on kainic acid-induced neuronal damage was also evaluated.
# [11] = 100 μM LY367385 co-applied with 100 μM DHPG
smiles,measurement,setting,value
N[C@@H](CCCP(=O)(O)O)C(=O)O [APV],block of glutamate-induced truncation of mGluR1α,[1]; 1 h,completely blocked
N#Cc1cc2[nH]c(=O)c(=O)[nH]c2cc1[N+](=O)[O-] [CNQX],block of glutamate-induced truncation of mGluR1α,[1]; 1 h,had no effect
N[C@H](C(=O)O)c1cc(O)cc(O)c1 [DHPG],cell death,[2]; DHPG 100 μM 1 hour after 100 μM NMDA 1 hour,54%
same,cell death,[2]; DHPG 100 μM 1 hour before 100 μM NMDA 1 hour,29%
same,mean amplitude of DHPG-induced whole-cell current,"[3]; myc-mGluR1α936Δ/GIRK1,2-transfected cells",−1.4±0.8 pA
same,mean amplitude of DHPG-induced whole-cell current,[3]; myc-mGluR1α936Δ/TRPC1-transfected cells,−9.7±6.8 pA
same,change in fluorescent calcium signals,[4],no change
same,"calcium transient, max. ΔF/F",[5],30.6±4.2%
same,phosphorylated Akt levels,[6]; 2 h after NMDA 50 μM 1 h pre-treatment,failed to increase
same,phosphorylated Akt levels,[6]; neurons not pre-treated with NMDA,increase
same,average amplitude of DHPG-induced whole-cell current,"[7]; myc-mGluR1α/GIRK1,2-transfected cells",−24.2±6.3 pA
same,mean amplitude of DHPG-induced whole-cell current,[7]; myc-mGluR1α/TRPC1-transfected cells,−36.7±9.6 pA
Cc1cc(C(=O)O)ccc1[C@H](N)C(=O)O [LY367385],block of the neuroprotective effect of DHPG before NMDA,[2]; [11],completely blocked
same,block of the neurotoxic effect of DHPG after NMDA,[2]; [11],completely blocked
same,block of DHPG-induced increase in phosphorylated Akt,[6]; 10 min in presence of LY367385,blocked
same,block of glutamate-induced truncation of mGluR1α,[1]; 1 h,do not block
C[C@H](NC(c1cccc2[nH]c(=O)c(=O)[nH]c12)P(=O)(O)O)c1ccc(Br)cc1 (some centres unmarked) [NVP-AAM077],block of NMDA-mediated spectrin degradation,[8]; NVP-AAM077 0.4 μM,not
same,block of NMDA-induced truncation of mGluR1α,"[1]; NMDA 10 μM, 1 h, NVP-AAM077 0.4 μM",not
CC(C)[C@H](NC(=O)OCc1ccccc1)C(=O)N[C@H](C=O)Cc1ccccc1 [calpain inhibitor III] (Cbz-Val-Phe-aldehyde),block of NMDA-induced truncation of mGluR1α,"[1]; inhibitor pretreatment 2 hours, then NMDA 100 μM 1 h, Calpi3 10 μM",significantly blocked
CC(C(O)c1ccc(O)cc1)N1CCC(Cc2ccccc2)CC1 (centres unmarked) [ifenprodil],block of NMDA-mediated spectrin degradation,[8]; ifenprodil 10 μM,blocked
same,block of NMDA-induced truncation of mGluR1α,"[1]; NMDA 10 μM, 1 h, ifenprodil 10 μM",selectively blocked
C=C(C)[C@H]1CN[C@H](C(=O)O)[C@H]1CC(=O)O [kainic acid],mGluR1 truncation in hippocampus following kainic acid injection,[9],rapidly truncated
same,neuronal damage in hippocampal pyramidal neurons,[10],marked damage
